Results from EP0748793A1, “KETOPANTHENOL WITH ACETYLATING PROPERTIES” (TOVARISCHESTVO S OGRANICHENNOI OTVETSTVENNOSTJU " PANT", priority 1994, dated 1995).
Entries after “also recorded” stand apart in the source; their conditions may differ.

Legend:
[1] = tested on: acetylation of aromatic amines (N-acetylation); assay: Acetylating properties of the organism: acetylation of sodium sulfacyl, arylamines determined in urine; format: in vivo, white rats; conditions: for % of excretion from the dose, In acetylated form / % of excretion from the dose, In free form / Acetylating properties of the organism: Na sulfacyl acetylating in the organism of rats; for Concentration in urine, In acetylated form / Concentration in urine, In free form: Na sulfacyl in rat urine; for Na sulfacyl excretion, Sulfacyl isolation M ± m, In acetylated form / Na sulfacyl excretion, Sulfacyl isolation M ± m, In free form / Na sulfacyl excretion, Sulfacyl isolation M ± m, Total / Na sulfacyl excretion, Excretion % from the dose: rats; for Na sulfacyl excretion, Sulfacyl isolation M ± m, In acetylated form / Na sulfacyl excretion, Sulfacyl isolation M ± m, In free form / Na sulfacyl excretion, Sulfacyl isolation M ± m, Total: agent i.p. for 4 days, then Na sulfacyl 20 mg/kg i.p., urine; for Na sulfacyl excretion, Excretion % from the dose: total sulfacyl in urine relative to the sulfacyl dose
Procedure: The level of the organism supply with a vitamin is determined by the study of the reaction of acetylation of exogenous aromatic amines. The total acetylating properties of the organism were assessed by the method of quantitative determination of the content of arylamines in the examined substrate (urine).
Sodium sulfacyl was chosen as the substance for acetylation.
The influence of 4-days of injections of ketopanthenol on the acetylating properties of white rats was examined during the experiments.
The experiments were carried out using mongrel pubescent male rats. 14 animals were included in each group. The examined agent was injected intraperitoneally in a dose of 29 mg/kg. On the 4th day 4 hours after the last injection of the examined agent the sodium sulfacyl solution in a dose of 20 mg/kg was injected intraperitoneally. All the rats were separated into exchangeable cages for urine gathering. The resulting data were compared with the control groups (group I - only received sodium sulfacyl in a dose of 20 mg/kg, and group II received calcium D-pantothenate).
The average weight of the animals in the group fluctuated within 154.7 ± 10.8 g, the absolute dose of sodium sulfacyl was 3.09 ± 0.14 mg.

non-linear white rats = assay: Subchronic toxicity and local irritating effect, 2 months daily dosing, mass growth; format: in vivo
Procedure: The study of subchronic toxicity and the local irritating effect of ketopanthenol.
In the experiment carried out for 2 months, non-linear white rats of both sexes with the average initial weight of 75 ± 3.3 g were used. The animals were divided into 7 groups. The first three groups received daily, during the whole experimental period, ketopanthenol in 0.2 ml of distilled water in doses of 13.2 mg/kg (which corresponds to the therapeutic dose of vitamin B3), 132.0 and 264 mg/kg (in doses 10 and 20 times larger than the therapeutic dose). […] The animals of the seventh group were used as control, receiving internally 0.2 ml of distilled water daily.
During the whole experiment the animals were weighed once a week and the observation on their development, state and behavior was carried out.

Solubility in solvents = format: physicochemical
[2] = tested on: conjunctive bag of the eye; assay: Eye irritation, aqueous solution dripped into the conjunctive bag; format: in vivo; conditions: eye of 5 rabbits, three days
Description: The aqueous solution of ketopanthenol was dripped into the conjunctive bag of the eye of 5 rabbits weighing 2.5 ± 0.3 kg for three days.

in vivo = conditions: mouse, po
Procedure: (§1) To determine acute toxicity of ketopanthenol, non-linear white mice of both sexes with the average mass of 19 ± 3 g were used. There were 72 mice in the experiment, the animals were divided into 12 groups, 6 animals in each group. The mice of the first 6 groups received ketopanthenol in 0.2 ml of distilled water once internally in doses: 20.0, 21.0, 22.0, 23.0, 24.0 and 25.0 g/kg.
(§2) The 12 group was the control one, the mice of this group received once internally only 0.2 ml of distilled water.
(§3) The mice were under observation for 14 days.
(§4) The LD50 calculations were carried out according to Kerber

non-linear white mice = assay: in vivo; conditions: mouse
Procedure: as §1, §2, §3, §4

[3] = dose 10 times larger than the therapeutic dose (132.0 mg/kg), 2 months
[4] = dose 20 times larger than the therapeutic dose (264 mg/kg), 2 months
[5] = rats, 13.2 mg/kg daily, 2 months
[6] = rats, 132.0 mg/kg daily, 2 months
[7] = rats, 264.0 mg/kg daily, 2 months
[8] = therapeutic dose (13.2 mg/kg), 2 months

Compound	% of excretion from the dose, In acetylated form [1] [%]	% of excretion from the dose, In free form [1] [%]	Acetylating properties of the organism [1]	Concentration in urine, In acetylated form [1] [mg/mL]	Concentration in urine, In free form [1] [mg/mL]	Na sulfacyl excretion, Sulfacyl isolation M ± m, In acetylated form [1]	Na sulfacyl excretion, Sulfacyl isolation M ± m, In free form [1]	Na sulfacyl excretion, Sulfacyl isolation M ± m, Total [1]	Na sulfacyl excretion, Excretion % from the dose [1] [%]	growth of the mass of the rats, higher in comparison with the control animals (non-linear white rats; [3]) [%]	growth of the mass of the rats, higher in comparison with the control animals (non-linear white rats; [4]) [%]	Mass growth during the experiment (non-linear white rats; [5]) [g]	Mass growth during the experiment, % to the control (non-linear white rats; [5]) [%]	Mass, Final (non-linear white rats; [5])	Mass growth during the experiment (non-linear white rats; [6]) [g]	Mass growth during the experiment, % to the control (non-linear white rats; [6]) [%]	Mass, Final (non-linear white rats; [6])	Mass growth during the experiment (non-linear white rats; [7]) [g]	Mass growth during the experiment, % to the control (non-linear white rats; [7]) [%]	Mass, Final (non-linear white rats; [7])	other results
CC(C)(CO)[C@@H](O)C(=O)NCCC(=O)O [D (+) pantothenate Ca, calcium D-pantothenate, reference compound]	22.3 ± 1.8	70.7 ± 6.0	24.0	0.172	0.54	0.67 ± 0.04	2.12 ± 0.09	2.79 ± 0.19	93.0												
CC(C)(CO)C(=O)C(=O)NCCCO [ketopanthenol]	32.0 ± 2.3	62.1 ± 2.9	34.0	0.36	0.71	0.99 ± 0.4	1.92 ± 0.09	2.91 ± 0.21	94.2	12.0	6.5	132.7 ± 10.7	103.72	210.7 ± 18.1	134.3 ± 8.4	112.0	209.5 ± 22.5	127.7 ± 11.0	106.5	200.1 ± 12.3	changes in development, state and behavior of the animals (non-linear white rats; rats, 2 months, in comparison with the control rats): No changes; toxic influence on the animals' organism (non-linear white rats; rats, prolonged period (2 months)): no toxic influence; also recorded: no toxic effect; local irritating effect (non-linear white rats; rats, visual examination of the internal organs after slaughtering): no local irritating effect was observed; growth of the mass of the rats, higher in comparison with the control animals (non-linear white rats; [8]): 10.7%; excretion of the sulfacyl in its free form, lower ([1]; compared with the series I (control)): 20%; increase of the acetylating properties of the organism ([1]; in comparison with calcium D-pantothenate): 1.5 times; increase of the excretion of the acetylated product ([1]; in comparison with group II (calcium D-pantothenate)): 1.7 times; increase of the acetylating properties of the organism ([1]; in comparison with the control): 3.6 times; increase of the excretion of the acetylated product ([1]; in comparison with the control group): 4 times; solubility (Solubility in solvents; in ether): poor solubility; solubility (Solubility in solvents; in water, alcohols, acetone, chloroform): good solubility; irritating effect [2]: No irritating effect was observed; LD50 at 336 h (in vivo): 23500 mg/kg; MTD at 336 h (in vivo): 21000 mg/kg; dose from which mice lost mobility, had quickened breathing, inertia, narrowed eye slots (non-linear white mice): ≥ 22000 mg/kg; LD100 (non-linear white mice; 20160 min): 25000 mg/kg
CC(C)(CO)[C@@H](O)C(=O)NCCCO [D-panthenol, D-pantothenyl alcohol, reference compound]										9.3	5.2	129.5 ± 8.5	108.0	202.0 ± 16.4	131.1 ± 8.5	109.3	205.1 ± 16.0	126.1 ± 9.3	105.2	197.3 ± 18.8	growth of the mass of the rats, higher in comparison with the control animals (non-linear white rats; [8]): 8.0%; MTD at 336 h (in vivo): 21000 mg/kg
